Assays:
[1] = test system: EBC-1 (Squamous Cell Lung Carcinoma); test: combination Emax (second highest fraction inhibited in the dose matrix, 72 h); higher = more inhibition; extreme values may be limits of the assay
Method in brief: (§1)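 After 24 hours at 37°C and 5% CO2 in 1536-well plates, cells in DMEM/F12 or RPMI plus 10% FBS received two-drug dose matrices for 72 hours. Viability came from CellTiter-Glo 2.0 luminescence and was scaled as inhibition, anchored at 0 by vehicle wells and at 1 by blank wells. Combination Emax is taken as the second-highest inhibition in the matrix, and Bliss excess as the observed combination effect less EA + EB − EA·EB, with EA and EB the single-agent effects.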

[2] = test system: KYSE-150 (Esophageal Squamous Cell Carcinoma); test: as above
Method in brief: as §1

[3] = test system: KINGS-1 (Low Grade Glioma); test: as above
Method in brief: as §1

[4] = test system: GI-1 (Glioblastoma); test: as above
Method in brief: as §1

[5] = test system: NCI-H513 (Other Solid Carcinomas); test: as above
Method in brief: as §1

[6] = test system: PFSK-1 (Other Solid Carcinomas); test: as above
Method in brief: as §1

[7] = test system: EMC-BAC-2 (Non-Small Cell Lung Carcinoma); test: as above
Method in brief: as §1

[8] = test system: KYSE-50 (Esophageal Squamous Cell Carcinoma); test: as above
Method in brief: as §1

[9] = test system: IMR-5 (Neuroblastoma); test: as above
Method in brief: as §1

[10] = test system: KLE (Endometrial Carcinoma); test: as above
Method in brief: as §1

[11] = test system: OCUB-M (Breast Carcinoma); test: as above
Method in brief: as §1

[12] = test system: EW-13 (Ewing's Sarcoma); test: as above
Method in brief: as §1

[13] = test system: U-87-MG (Glioblastoma); test: as above
Method in brief: as §1

[14] = test system: VMRC-LCD (Lung Adenocarcinoma); test: Bliss excess, mean over the matrix (fraction); higher = more synergy
Method in brief: as §1

[15] = test system: NCI-H1573 (Lung Adenocarcinoma); test: as above
Method in brief: as §1

[16] = test system: EW-3 (Ewing's Sarcoma); test: as above
Method in brief: as §1

[17] = test system: HuP-T3 (Pancreatic Carcinoma); test: as above
Method in brief: as §1

[18] = test system: OCUB-M (Breast Carcinoma); test: as above
Method in brief: as §1

[19] = test system: U-87-MG (Glioblastoma); test: as above
Method in brief: as §1

[20] = test system: NCI-N87 (Gastric Carcinoma); test: as above
Method in brief: as §1
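Wherever Bliss excess, mean over the matrix is given: after 72 h of two-drug dosing.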

| Compound | combination Emax [1] | combination Emax [2] | combination Emax [3] | combination Emax [4] | combination Emax [5] | combination Emax [6] | combination Emax [7] | combination Emax [8] | combination Emax [9] | combination Emax [10] | combination Emax [11] | combination Emax [12] | combination Emax [13] | Bliss excess [14] | Bliss excess [15] | Bliss excess [16] | Bliss excess [17] | Bliss excess [18] | Bliss excess [19] | Bliss excess [20] |
| --- | --- | --- | --- | --- | --- | --- | --- | --- | --- | --- | --- | --- | --- | --- | --- | --- | --- | --- | --- | --- |
| Cn1cnc2c(F)c(Nc3ccc(Br)cc3Cl)c(C(=O)NOCCO)cc21 [Selumetinib] + CC(C)n1c(=O)n(C)c2cnc3cc(F)c(-c4ccc(OCCCN5CCCCC5)nc4)cc3c21 [AZD1390] (first compound max 10 µM, 7x7, partner max 0.3 µM) | 0.934 | 0.259 | 0.232 | 0.216 | 0.22 | 0.244 | 0.278 | 0.21 | 0.173 | 0.178 | 0.0283 | 0.0488 | 0.215 | -0.0191 | -0.0642 | -0.0455 | -0.0046 | -0.0332 | -0.027 | -0.0279 |
| Cn1cnc2c(F)c(Nc3ccc(Br)cc3Cl)c(C(=O)NOCCO)cc21 [Selumetinib] + CCN(CCO)CCCOc1ccc2c(Nc3cc(CC(=O)Nc4cccc(F)c4)[nH]n3)ncnc2c1 [AZD2811] (first compound max 10 µM, 7x7, partner max 1 µM) | 0.964 | 0.492 | 0.22 | 0.286 | 0.264 | 0.313 | 0.398 | 0.409 | 1 | 0.286 | 0.713 | 0.218 | 0.252 | -0.0162 | -0.0318 | -0.0112 | -0.0526 | -0.0959 | -0.0443 | -0.0173 |
| Cn1cnc2c(F)c(Nc3ccc(Br)cc3Cl)c(C(=O)NOCCO)cc21 [Selumetinib] + C[C@@H]1COCCN1C2=NC(=NC(=C2)C3(CC3)[S@](=N)(=O)C)C4=C5C=CNC5=NC=C4 [AZD6738] (first compound max 10 µM, 7x7, partner max 10 µM) | 0.934 | 0.622 | 0.292 | 0.781 | 0.416 | 0.595 | 0.557 | 0.573 | 1 | 0.442 | 0.249 | 0.623 | 0.457 | -0.0546 | 0.0488 | -0.0489 | 0.048 | -0.0604 | 0.0075 | -0.0604 |
| CC(=O)Nc1cccc(-n2c(=O)n(C3CC3)c(=O)c3c(Nc4ccc(I)cc4F)n(C)c(=O)c(C)c32)c1 [Trametinib] + Cc1nc(-c2cn3c(n2)-c2ccc(-c4cnn(C(C)(C)C(N)=O)c4)cc2OCC3)n(C(C)C)n1 [Taselisib] (first compound max 1 µM, 7x7, partner max 10 µM) | 1 | 0.886 | 0.894 | 0.766 | 0.757 | 0.604 | 0.945 | 0.757 | 0.368 | 0.619 | 1 | 0.262 | 0.837 | -0.0267 | 0.088 | 0.046 | 0.118 | -0.0123 | 0.0848 | 0.067 |
| CC1(C)CCC(CN2CCN(c3ccc(C(=O)NS(=O)(=O)c4ccc(NCC5CCOCC5)c([N+](=O)[O-])c4)c(Oc4cnc5[nH]ccc5c4)c3)CC2)=C(c2ccc(Cl)cc2)C1 [Venetoclax] + C1CN(CCC1(C(=O)N[C@@H](CCO)C2=CC=C(C=C2)Cl)N)C3=NC=NC4=C3C=CN4 [Capivasertib] (first compound max 1 µM, 7x7, partner max 3 µM) | 0.317 | 0.405 | 0.329 | 0.412 | 0.117 | 0.518 | 0.35 | 0.17 | 0.19 | 0.315 | 0.942 | 0.213 | 0.403 | -0.0514 | -0.0733 | 0.0001 | -0.0387 | -0.0222 | -0.0214 | -0.0833 |
| CC1(C)CCC(CN2CCN(c3ccc(C(=O)NS(=O)(=O)c4ccc(NCC5CCOCC5)c([N+](=O)[O-])c4)c(Oc4cnc5[nH]ccc5c4)c3)CC2)=C(c2ccc(Cl)cc2)C1 [Venetoclax] + C=CCn1c(=O)c2cnc(Nc3ccc(N4CCN(C)CC4)cc3)nc2n1-c1cccc(C(C)(C)O)n1 [AZD1775] (first compound max 1 µM, partner max 1 µM) | 0.248 | 0.496 | 0.567 | 0.902 | 0.47 | 0.72 | 0.404 | 0.647 | 0.924 | 0.51 | 0.754 | 0.129 | 0.265 | -0.0174 | -0.0513 | 0.0735 | -0.112 | 0.0062 | -0.0456 | 0.0552 |
| CC1(C)CCC(CN2CCN(c3ccc(C(=O)NS(=O)(=O)c4ccc(NCC5CCOCC5)c([N+](=O)[O-])c4)c(Oc4cnc5[nH]ccc5c4)c3)CC2)=C(c2ccc(Cl)cc2)C1 [Venetoclax] + CCN(CCO)CCCOc1ccc2c(Nc3cc(CC(=O)Nc4cccc(F)c4)[nH]n3)ncnc2c1 [AZD2811] (first compound max 1 µM, 7x7, partner max 1 µM) | 0.225 | 0.308 | 0.243 | 0.389 | 0.183 | 0.304 | 0.343 | 0.413 | 1 | 0.273 | 0.749 | 0.109 | 0.265 | -0.0227 | -0.0246 | 0.0634 | -0.0309 | -0.049 | -0.0009 | -0.004 |
| CC1(C)CCC(CN2CCN(c3ccc(C(=O)NS(=O)(=O)c4ccc(NCC5CCOCC5)c([N+](=O)[O-])c4)c(Oc4cnc5[nH]ccc5c4)c3)CC2)=C(c2ccc(Cl)cc2)C1 [Venetoclax] + CN(C)CCCOc1ccc(-c2ccc3ncc4c(c3c2)n(C2CCOCC2)c(=O)n4C)cn1 [AZD0156] (first compound max 1 µM, 7x7, partner max 1 µM) | 0.275 | 0.237 | 0.301 | 0.234 | 0.21 | 0.391 | 0.25 | 0.164 | 0.0957 | 0.352 | 0.749 | 0.062 | 0.203 | -0.0333 | -0.0249 | 0.032 | -0.0925 | 0.0289 | -0.0163 | -0.0763 |
| CC1(C)CCC(CN2CCN(c3ccc(C(=O)NS(=O)(=O)c4ccc(NCC5CCOCC5)c([N+](=O)[O-])c4)c(Oc4cnc5[nH]ccc5c4)c3)CC2)=C(c2ccc(Cl)cc2)C1 [Venetoclax] + COc1cc(Nc2ncc3c(n2)-c2ccc(Cl)cc2C(c2c(F)cccc2OC)=NC3)ccc1C(=O)O [Alisertib] (first compound max 1 µM, 7x7, partner max 10 µM) | 0.436 | 0.516 | 0.379 | 0.506 | 0.234 | 0.477 | 0.507 | 0.537 | 1 | 0.635 | 0.727 | 0.294 | 0.423 | -0.043 | -0.0266 | 0.079 | -0.0527 | 0.111 | -0.087 | -0.0675 |
| CC1(C)CCC(CN2CCN(c3ccc(C(=O)NS(=O)(=O)c4ccc(NCC5CCOCC5)c([N+](=O)[O-])c4)c(Oc4cnc5[nH]ccc5c4)c3)CC2)=C(c2ccc(Cl)cc2)C1 [Venetoclax] + C[C@@H]1COCCN1C2=NC(=NC(=C2)C3(CC3)[S@](=N)(=O)C)C4=C5C=CNC5=NC=C4 [AZD6738] (first compound max 1 µM, 7x7, partner max 10 µM) | 0.514 | 0.628 | 0.344 | 0.918 | 0.356 | 0.685 | 0.612 | 0.719 | 1 | 0.515 | 0.652 | 0.671 | 0.596 | -0.0393 | -0.0313 | 0.0185 | -0.0201 | -0.0107 | -0.0487 | -0.0232 |
| CC1(C)CCC(CN2CCN(c3ccc(C(=O)NS(=O)(=O)c4ccc(NCC5CCOCC5)c([N+](=O)[O-])c4)c(Oc4cnc5[nH]ccc5c4)c3)CC2)=C(c2ccc(Cl)cc2)C1 [Venetoclax] + C[C@@H](Nc1cc(F)cc(F)c1)c1cc(C(=O)N(C)C)cc2c(=O)cc(N3CCOCC3)oc12 [AZD8186] (first compound max 1 µM, 7x7, partner max 3 µM) | 0.209 | 0.161 | 0.332 | 0.28 | 0.17 | 0.194 | 0.2 | 0.18 | 0.276 | 0.41 | 0.276 | 0.322 | 0.44 | -0.0457 | -0.0247 | 0.0336 | -0.0275 | -0.0082 | -0.117 | -0.111 |
| CC1(C)CCC(CN2CCN(c3ccc(C(=O)NS(=O)(=O)c4ccc(NCC5CCOCC5)c([N+](=O)[O-])c4)c(Oc4cnc5[nH]ccc5c4)c3)CC2)=C(c2ccc(Cl)cc2)C1 [Venetoclax] + Cc1cc2ncnn2cc1Nc1ncc2c(n1)n(C1CCOCC1)c(=O)n2C [AZD7648] (first compound max 1 µM, 7x7, partner max 10 µM) | 0.26 | 0.572 | 0.329 | 0.238 | 0.297 | 0.489 | 0.271 | 0.217 | 0.282 | 0.444 | 0.383 | 0.0496 | 0.354 | -0.0675 | -0.0242 | 0.0149 | -0.0331 | -0.0149 | -0.0832 | -0.0609 |
